From patent US20050192314A1, “Urea derivatives as C-kit modulators” (Ambit Biosciences Corporation, priority 2003, published 2005)

Assays:
[1] = test system: CS0001; assay: Cell Assay: CS0001:IC50; type: cell-based
[2] = target: T1, KIT(DKIN) (Homo sapiens, UniProt P10721); assay: Binding constant (Kd) measurement, phage-displayed kinase competition binding assay: KIT(DKIN)
T1 construct: KIT(DKIN); made in house
Text: (§1) The term “ND” represents non-determined values.

[3] = target: T2, KIT(JMminus) (Homo sapiens, UniProt P10721); assay: Binding constant (Kd) measurement, phage-displayed kinase competition binding assay: KIT(JMminus)
T2 construct: KIT(JMminus); made in house
Text: as §1

[4] = target: T3, KIT(JMminus,D816V) (Homo sapiens, UniProt P10721, D816V); assay: Binding constant (Kd) measurement, phage-displayed kinase competition binding assay: KIT(JMminus,D816V)
T3 construct: KIT(JMminus,D816V); made in house
Text: as §1

[5] = target: T4, MKNK2(DKIN) (Homo sapiens, UniProt Q9HBH9); assay: Binding constant (Kd) measurement, phage-displayed kinase competition binding assay: MKNK2(DKIN)
T4 construct: MKNK2(DKIN); made in house
Text: as §1

[6] = target: KIT(JMplus) (Homo sapiens, UniProt P10721); assay: Binding constant (Kd) measurement, phage-displayed kinase competition binding assay: KIT(JMplus)
Text: The components of the assays include human kinases expressed as fusions to T7 bacteriophage particles and immobilized ligands that bind to the ATP site of the kinases. […] If the test compound binds the kinase it competes with the immobilized ligand and prevents binding to the solid support. […] The results are read out by quantitating the amount of fusion protein bound to the solid support, which is accomplished by either traditional phage plaque assays or by quantitative PCR (qPCR) using the phage genome as a template.

[7] = target: T5, KIT(JMplus,V559D) (Homo sapiens, UniProt P10721, V559D); assay: Binding constant (Kd) measurement, phage-displayed kinase competition binding assay: KIT(JMplus,V559D)
T5 construct: KIT(JMplus); made in house
Text: as §1

T4 sequence (Q9HBH9 84-388 limits assumed): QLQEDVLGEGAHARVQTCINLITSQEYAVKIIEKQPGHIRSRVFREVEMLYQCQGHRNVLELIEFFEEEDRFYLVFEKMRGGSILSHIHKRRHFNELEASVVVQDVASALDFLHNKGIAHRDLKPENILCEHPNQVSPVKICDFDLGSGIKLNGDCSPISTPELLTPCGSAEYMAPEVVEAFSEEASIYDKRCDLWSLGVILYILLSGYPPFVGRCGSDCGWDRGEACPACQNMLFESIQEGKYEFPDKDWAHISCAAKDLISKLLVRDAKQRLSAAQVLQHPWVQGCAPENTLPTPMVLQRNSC
T3 sequence (P10721 589-937 D816V limits assumed): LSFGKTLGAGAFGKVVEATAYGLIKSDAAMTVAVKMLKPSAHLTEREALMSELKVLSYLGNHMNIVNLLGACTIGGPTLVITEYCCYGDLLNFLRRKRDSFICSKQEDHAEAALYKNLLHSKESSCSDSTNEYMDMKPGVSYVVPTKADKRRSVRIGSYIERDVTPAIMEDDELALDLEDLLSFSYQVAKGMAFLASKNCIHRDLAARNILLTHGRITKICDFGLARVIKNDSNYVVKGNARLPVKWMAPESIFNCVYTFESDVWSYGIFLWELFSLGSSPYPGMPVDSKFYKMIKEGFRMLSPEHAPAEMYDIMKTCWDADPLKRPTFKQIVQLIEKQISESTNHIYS
T2 sequence (P10721 589-937 limits assumed): as the sequence (P10721 589-937 D816V limits assumed) above, with V228D counted along it
T1 sequence (P10721 589-937 limits assumed): as the sequence (P10721 589-937 D816V limits assumed) above, with V228D counted along it
T5 sequence (P10721 546-976 V559D limits assumed): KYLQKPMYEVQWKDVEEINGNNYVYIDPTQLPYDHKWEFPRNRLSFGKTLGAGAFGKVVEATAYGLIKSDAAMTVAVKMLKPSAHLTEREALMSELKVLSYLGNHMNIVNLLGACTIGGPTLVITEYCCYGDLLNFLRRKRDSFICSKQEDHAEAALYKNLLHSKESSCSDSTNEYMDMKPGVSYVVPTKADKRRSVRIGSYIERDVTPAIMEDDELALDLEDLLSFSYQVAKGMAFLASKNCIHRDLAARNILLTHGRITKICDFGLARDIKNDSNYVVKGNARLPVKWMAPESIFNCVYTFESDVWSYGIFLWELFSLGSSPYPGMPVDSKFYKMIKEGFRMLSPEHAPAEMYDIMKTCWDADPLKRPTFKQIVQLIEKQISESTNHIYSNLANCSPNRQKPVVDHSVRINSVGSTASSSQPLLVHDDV
Sequence of KIT(JMplus) (P10721 546-976 limits assumed): as the sequence (P10721 546-976 V559D limits assumed) above, with D14V counted along it

Row | Compound | Kd [2] | Kd [3] | Kd [4] | also measured
1 | CC(C)(C)c1cc(NC(=O)Nc2ccc(C(=O)/C=C/c3ccncc3)cc2)no1 |  |  |  | IC50 [1]: 100 to 1000 nM
2 | CC(C)(C)c1cc(NC(=O)Nc2ccc(NC(=O)c3cccc(Cl)n3)cc2)no1 [Compound N4] | < 100 nM | < 100 nM |  | 
3 | CC(C)(C)c1cc(NC(=O)Nc2ccc(NC(=O)c3ccc4sccc4c3)cc2)no1 [Compound N122] | 100 to 1000 nM | < 100 nM |  | 
4 | Cc1ccc2sc(C(=O)Nc3ccc(NC(=O)Nc4cc(C(C)(C)C)on4)cc3)cc2c1 [Compound N133] | 100 to 1000 nM | < 100 nM |  | 
5 | CC(C)(C)c1cc(NC(=O)Nc2ccc(N3C(=O)c4ccccc4C3=O)cc2)no1 [Compound A57] |  | < 100 nM | 1000 to 10000 nM | 
6 | CC(C)(C)c1cc(NC(=O)Nc2ccc(Nc3ncnc4[nH]cnc34)cc2)no1 [Compound O3] | < 100 nM |  | < 100 nM | 
7 | CC(C)(C)c1cc(NC(=O)Nc2ccc(NC(=O)c3cc4ccccc4cn3)cc2)no1 [Compound N106] | < 100 nM | < 100 nM |  | 
8 | CC(C)(C)c1cc(NC(=O)Nc2ccc(NC(=O)c3cn4nc(Cl)ccc4n3)cc2)no1 [Compound N9] | < 100 nM | < 100 nM |  | 
9 | CC(C)(C)c1cc(NC(=O)Nc2ccc(NC(=O)c3ccc4ccccc4c3)cc2)no1 [Compound N28] | < 100 nM | < 100 nM |  | 
10 | CC(C)(C)c1cc(NC(=O)Nc2ccc(NC(=O)c3ccc4ccccc4n3)cc2)no1 [Compound N143] | < 100 nM | < 100 nM |  | 
11 | Cc1cnc(C(=O)Nc2ccc(NC(=O)Nc3cc(C(C)(C)C)on3)cc2)cn1 [Compound O2] | < 100 nM | < 100 nM |  | 
12 | CC(C)(C)c1cc(NC(=O)Nc2ccc(C(=O)Nc3nccnc3N)cc2)no1 [Compound N157] |  | < 100 nM | 1000 to 10000 nM | Kd [5]: 100 to 1000 nM
13 | CC(C)(C)c1cc(NC(=O)Nc2ccc(OCC3CC3)cc2)no1 [Compound G37] | < 100 nM | < 100 nM | 1000 to 10000 nM | Kd [5]: 100 to 1000 nM
14 | CC(C)(C)c1cc(NC(=O)Nc2ccc(NC(=O)c3ccccn3)cc2)no1 [Compound N188] | < 100 nM | < 100 nM | 100 to 1000 nM | Kd [6]: < 100 nM
15 | Cc1cccc(C(=O)Nc2ccc(NC(=O)Nc3cc(C(C)(C)C)on3)cc2)n1 [Compound N121] | < 100 nM | < 100 nM |  | 
16 | CC(C)(C)c1cc(NC(=O)Nc2ccc(OCc3ccccc3F)cc2)no1 [Compound G12, 1-(4-(2-fluorobenzyloxy)phenyl)-3-(5-tert-butylisoxazol-3-yl)urea] | 100 to 1000 nM | < 100 nM | 1000 to 10000 nM | 
17 | Cc1[nH]c(C(=O)Nc2ccc(NC(=O)Nc3cc(C(C)(C)C)on3)cc2)c(C)c1CCC(=O)O [Compound N39] | < 100 nM |  | 100 to 1000 nM | 
18 | COc1cc2nc(Cl)nc(Nc3ccc(NC(=O)Nc4cc(C(C)(C)C)on4)cc3)c2cc1OC [Compound O1, 1-(4-(2-chloro-6,7-dimethoxyquinazolin-4-ylamino)phenyl)-3-(5-tert-butylisoxazol-3-yl)urea] | 100 to 1000 nM | < 100 nM | 1000 to 10000 nM | Kd [7]: < 100 nM
19 | CC(C)(C)c1cc(NC(=O)Nc2ccc(NC(=O)c3cc4ccccc4[nH]3)cc2)no1 [Compound N161] |  | < 100 nM | 1000 to 10000 nM | 
20 | Cc1ccc(C(=O)Nc2ccc(NC(=O)Nc3cc(C(C)(C)C)on3)cc2)cc1 [Compound N92] | 100 to 1000 nM | < 100 nM |  | 

Row | Compound | Kd [2] | Kd [3] | Kd [4] | also measured
21 | CC(=O)Oc1cccnc1C(=O)Nc1ccc(NC(=O)Nc2cc(C(C)(C)C)on2)cc1 [Compound N79] |  | < 100 nM | 100 to 1000 nM | 
22 | CC(C)(C)c1cc(NC(=O)Nc2ccc(OCCCc3ccncc3)cc2)no1 [Compound G1, 1-(4-(3-(pyridin-4-yl)propoxy)phenyl)-3-(5-tert-butylisoxazol-3-yl)urea] | < 100 nM | < 100 nM |  | 
23 | CC(C)(C)c1cc(NC(=O)Nc2ccc(NC(=O)c3ncccc3O)cc2)no1 [Compound N134] | < 100 nM | < 100 nM | 100 to 1000 nM | Kd [6]: < 100 nM
24 | CC(C)(C)c1cc(NC(=O)Nc2ccc(NC(=O)c3ccc4ccncc4n3)cc2)no1 [Compound N110] | < 100 nM | < 100 nM |  | 
25 | COc1cc2ncnc(Nc3ccc(NC(=O)Nc4cc(C(C)(C)C)on4)cc3)c2cc1OC [Compound O5] |  | < 100 nM | < 100 nM | Kd [7]: < 100 nM
26 | Cc1cccnc1C(=O)Nc1ccc(NC(=O)Nc2cc(C(C)(C)C)on2)cc1 [Compound N41] | < 100 nM | < 100 nM |  | 
27 | CC(C)(C)c1cc(NC(=O)Nc2ccc(NC(=O)c3cc(Cl)nnc3Cl)cc2)no1 [Compound N174] | 1000 to 10000 nM | 1000 to 10000 nM |  | 
28 | CC(C)(C)c1cc(NC(=O)Nc2ccc(NC(=O)c3cccc(F)n3)cc2)no1 [Compound N8] | < 100 nM | < 100 nM |  | 
29 | Cc1ccc2[nH]c(C(=O)Nc3ccc(NC(=O)Nc4cc(C(C)(C)C)on4)cc3)cc2c1 [Compound N127] |  | < 100 nM | 1000 to 10000 nM | 
30 | CC(C)(C)c1cc(NC(=O)Nc2ccc(Nc3nc(Cl)nc4[nH]cnc34)cc2)no1 [Compound O4] | < 100 nM | < 100 nM |  | 
31 | CC(C)(C)c1cc(NC(=O)Nc2ccc(NC(=O)/C=C/c3ccccc3Cl)cc2)no1 [Compound N40] | 100 to 1000 nM | < 100 nM |  | 
32 | C=N/C(=N\C)Oc1cccc(C(=O)Nc2ccc(NC(=O)Nc3cc(C(C)(C)C)on3)cc2)c1 [Compound N74] |  | < 100 nM | 100 to 1000 nM | Kd [5]: 100 to 1000 nM
33 | Cc1nc(-c2ccc(C(=O)Nc3ccc(NC(=O)Nc4cc(C(C)(C)C)on4)cc3)s2)cs1 [Compound N173] | 100 to 1000 nM | < 100 nM |  | 
34 | COc1cc(OC)nc(Oc2ccccc2C(=O)Nc2ccc(NC(=O)Nc3cc(C(C)(C)C)on3)cc2)n1 [Compound N70] |  | 100 to 1000 nM |  | 
35 | CC(C)(C)c1cnc(CSc2cnc(NC(=O)Nc3ccon3)s2)o1 |  |  |  | IC50 [1]: < 100 nM
36 | Cn1nc(C(F)(F)F)c(C(=O)Nc2ccc(NC(=O)Nc3cc(C(C)(C)C)on3)cc2)c1Cl [Compound N68] |  | < 100 nM |  | 
37 | Cn1nc(C(F)(F)F)c2cc(C(=O)Nc3ccc(NC(=O)Nc4cc(C(C)(C)C)on4)cc3)sc21 [Compound N64] |  | 100 to 1000 nM |  | 
38 | CCOC(=O)c1cccc(C(=O)Nc2ccc(NC(=O)Nc3cc(C(C)(C)C)on3)cc2)n1 [Compound N164] |  | < 100 nM |  | 
39 | Cc1nc(N)cc(Nc2ccc(NC(=O)Nc3cc(C(C)(C)C)on3)cc2)n1 [Compound O10] | 100 to 1000 nM | < 100 nM |  | 
40 | CC(C)(C)c1cc(NC(=O)Nc2ccc(NC(=O)c3cccnc3C(=O)O)cc2)no1 [Compound N165] |  | < 100 nM |  | 
